Data as given in PubChem BioAssay AID1963839 (Molecular Pharmacology Branch, DTP, NCI, 2024).

Test system: 817829-284-R-J1-PDC complex spheroid viability
Experiment: Anticancer human tumor 817829-284-R-J1-PDC patient-derived colon adenocarcinoma cell line growth inhibition [POLQ]
Conditions: for IC50: curve of first compound; for viability, T/C: stronger effect = lower value
Experimental: Multicellular complex tumor spheroid response to Polymerase (POL) inhibitors (novobiocin, ART-558, RP6685) in combination with a variety of drugs and investigational agents in selected tumor cell lines
The POL inhibitors (novobiocin, ART-558, and RP6685) were evaluated both individually and in combination with standard of care and investigational anticancer small molecules within a complex spheroid model of solid tumors. . Complex spheroids include a stromal component modeled by human endothelial cells (HUVEC) and fibroblasts modeled by human mesenchymal stem cells (MSCs). The concentration ranges selected for each drug and investigational agent were based upon clinically achievable concentrations if the clinical Cmax of the agent was known.
Compounds. The drugs and investigational agents: novobiocin (NSC847541), ART-558 (NSC835418), RP-6685 (NSC848927), peposertib (NSC802822), ceralasertib (NSC780249), elimusertib (NSC800525), camonsertib (NSC841442), AZD-1390 (NSC803789), olaparib (NSC753686), talazoparib (NSC767125), rucaparib (NSC756644), sotorasib (NSC818433), MRTX-1133 (NSC836407), SN-38 (NSC673596), topotecan (NSC609699), epotoside (NSC141540), doxorubicin (NSC123127), gemcitabine (NSC613327), 5-fluorouracil (NSC19893), paclitaxel (NSC125973), vemurafenib (NSC761431), MSA-2 (NSC828583), SN-011 (NSC837082), adavosertib (NSC754352), prexasertib (NSC758257), carboplatin (NSC241240) and oxaliplatin (NSC266046), were obtained from the National Cancer Institute (NCI) Developmental Therapeutics Program Chemical Repository (21). The FDA-approved anticancer drug set is available from the Developmental Therapeutics Program at https://dtp.cancer.gov/organization/dscb/obtaining/. […] The stock solutions were prepared in dimethyl sulfoxide (DMSO, Sigma-Aldrich, St. Louis, MO, cat. D2650), except for the platinum compounds which were prepared in saline (Quality Biological, Gaithersburg, MD, cat. 114-055-101), at 800-fold the tested concentration and stored at -70 degrees C prior to their use. All drugs and investigational agents were tested over a range starting from a high concentration at or near the clinical Cmax and decreasing in half-log increments. If the clinical Cmax for an agent had not been determined, the highest concentration tested was 10 microM, except for SN-38, which was tested at a high concentration of 1 microM.
Cell Culture. All cells were maintained in an incubator at 37 degrees C and 5% CO2 with 95% humidity. The PDC lines were cultured according to standard operating procedures established by the NCI PDMR (https://pdmr.cancer.gov). Table 3 of the manuscript, lists the cell lines along with the number of the three cell types plated to form the mct-spheroids and media for tumor cell growth. After thawing, all PDC lines, except 997537-175-T-J1-PDC and 415267-285-R-J2-PDC, were cultured in Matrigel-coated flasks prepared with a working solution of 1X Ham's F-12 nutrient mix, without supplementation (Thermo Fisher Scientific, cat. 11765054), 100 U/mL penicillin-streptomycin (Thermo Fisher Scientific, cat. 15140122), and 2.5% Matrigel (Corning Inc., Corning, NY, cat. 354248) for the first three passages. The two PDC lines 997537-175-T-J1-PDC and 415267-285-R-J2-PDC were cultured on uncoated flasks. The 857933-349-R-J2-PDC line was cultured in 6C/Colon 1B media containing advanced DMEM/F-12 (Thermo Fisher Scientific, cat. 12634028), 10 mM HEPES (Thermo Fisher Scientific, cat. 15630080), 1X GlutaMAX supplement (Thermo Fisher Scientific, cat. 35050061), 0.1 mg/mL primocin (InvivoGen, San Diego, CA, cat. ant-pm-2), 10% defined fetal bovine serum, heat inactivated (HyClone Laboratories Inc., Logan, UT, cat. SH30070.03HI), 50% L-WRN conditioned media (ATCC, cat. CRL-3276), 1.25 mM N-Acetyl-L-cysteine (Sigma-Aldrich, cat. A9165), 10 mM nicotinamide (Sigma-Aldrich, cat. N0636), 1X B-27 supplement (Thermo Fisher Scientific, cat. 17504044), 1X N-2 supplement (Thermo Fisher Scientific, cat. […]

[1] = second compound 0.0316 µM, first compound 0.0316 µM
[2] = second compound 0.0316 µM, first compound 0.1 µM
[3] = second compound 0.0316 µM, first compound 0.316 µM
[4] = second compound 0.0316 µM, first compound 1 µM
[5] = second compound 0.0316 µM, first compound 3.16 µM
[6] = second compound 0.0316 µM, first compound 10 µM
[7] = second compound 0.1 µM, first compound 0.0316 µM
[8] = second compound 0.1 µM, first compound 0.1 µM
[9] = second compound 0.1 µM, first compound 0.316 µM
[10] = second compound 0.1 µM, first compound 1 µM
[11] = second compound 0.1 µM, first compound 3.16 µM
[12] = second compound 0.1 µM, first compound 10 µM
[13] = second compound 0.316 µM, first compound 0.0316 µM
[14] = second compound 0.316 µM, first compound 0.1 µM
[15] = second compound 0.316 µM, first compound 0.316 µM
[16] = second compound 0.316 µM, first compound 1 µM
[17] = second compound 0.316 µM, first compound 3.16 µM
[18] = second compound 0.316 µM, first compound 10 µM
[19] = second compound 1 µM, first compound 0.0316 µM
[20] = second compound 1 µM, first compound 0.1 µM
[21] = second compound 1 µM, first compound 0.316 µM
[22] = second compound 1 µM, first compound 1 µM
[23] = second compound 1 µM, first compound 3.16 µM
[24] = second compound 1 µM, first compound 10 µM
[25] = second compound 3.16 µM, first compound 0.0316 µM
[26] = second compound 3.16 µM, first compound 0.1 µM
[27] = second compound 3.16 µM, first compound 0.316 µM
[28] = second compound 3.16 µM, first compound 1 µM
[29] = second compound 3.16 µM, first compound 3.16 µM
[30] = second compound 3.16 µM, first compound 10 µM
[31] = second compound 10 µM, first compound 0.0316 µM
[32] = second compound 10 µM, first compound 0.1 µM
[33] = second compound 10 µM, first compound 0.316 µM
[34] = second compound 10 µM, first compound 1 µM
[35] = second compound 10 µM, first compound 3.16 µM
[36] = second compound 10 µM, first compound 10 µM
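Note: spheroids exposed to compounds for 7 days.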
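Throughout, for viability, T/C: 100% = DMSO vehicle-treated spheroids.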

CC(C)n1c(=O)n(C)c2cnc3cc(F)c(-c4ccc(OCCCN5CCCCC5)nc4)cc3c21 + Cc1cccc(N(C)C(=O)C2C(O)CCN2c2nc(C)cc(C(F)(F)F)c2C#N)c1
IC50 (second compound 0.0316 µM): 6.74 µM
IC50 (second compound 0.1 µM): 7.64 µM
IC50 (second compound 0.316 µM): 8.32 µM
IC50 (second compound 1 µM): 5.97 µM
IC50 (second compound 3.16 µM): 8.23 µM
IC50 (second compound 10 µM): 6.08 µM
viability, T/C [1]: 91.7%
viability, T/C [2]: 77.1%
viability, T/C [3]: 96.6%
viability, T/C [4]: 86.3%
viability, T/C [5]: 84.3%
viability, T/C [6]: 32.1%
viability, T/C [7]: 73.6%
viability, T/C [8]: 107%
viability, T/C [9]: 91.6%
viability, T/C [10]: 76.8%
viability, T/C [11]: 106%
viability, T/C [12]: 37.5%
viability, T/C [13]: 87.3%
viability, T/C [14]: 83.3%
viability, T/C [15]: 94.4%
viability, T/C [16]: 87.6%
viability, T/C [17]: 83%
viability, T/C [18]: 43.8%
viability, T/C [19]: 99.7%
viability, T/C [20]: 86.5%
viability, T/C [21]: 99.1%
viability, T/C [22]: 72.6%
viability, T/C [23]: 73.7%
viability, T/C [24]: 34.4%
viability, T/C [25]: 93.8%
viability, T/C [26]: 70.6%
viability, T/C [27]: 78.1%
viability, T/C [28]: 100%
viability, T/C [29]: 70.5%
viability, T/C [30]: 45.8%
viability, T/C [31]: 85.7%
viability, T/C [32]: 81.6%
viability, T/C [33]: 74%
viability, T/C [34]: 67.8%
viability, T/C [35]: 79%
viability, T/C [36]: 28.9%

CC1COCCN1c1cc(C2(S(C)(=N)=O)CC2)nc(-c2ccnc3[nH]ccc23)n1 (centres undefined) + Cc1cccc(N(C)C(=O)C2C(O)CCN2c2nc(C)cc(C(F)(F)F)c2C#N)c1
IC50 (second compound 0.0316 µM): 0.377 µM
IC50 (second compound 0.1 µM): 0.407 µM
IC50 (second compound 0.316 µM): 0.567 µM
IC50 (second compound 1 µM): 0.337 µM
IC50 (second compound 3.16 µM): 0.394 µM
IC50 (second compound 10 µM): 0.454 µM
viability, T/C [1]: 114%
viability, T/C [2]: 82.1%
viability, T/C [3]: 62%
viability, T/C [4]: 20.7%
viability, T/C [5]: 9.12%
viability, T/C [6]: 5.39%
viability, T/C [7]: 80.6%
viability, T/C [8]: 91.1%
viability, T/C [9]: 53.5%
viability, T/C [10]: 24.7%
viability, T/C [11]: 7.03%
viability, T/C [12]: 4.47%
viability, T/C [13]: 121%
viability, T/C [14]: 102%
viability, T/C [15]: 75.9%
viability, T/C [16]: 25.7%
viability, T/C [17]: 9.72%
viability, T/C [18]: 5.65%
viability, T/C [19]: 104%
viability, T/C [20]: 118%
viability, T/C [21]: 52%
viability, T/C [22]: 30.7%
viability, T/C [23]: 7.73%
viability, T/C [24]: 5.65%
viability, T/C [25]: 105%
viability, T/C [26]: 86.3%
viability, T/C [27]: 54.6%
viability, T/C [28]: 28.7%
viability, T/C [29]: 7.73%
viability, T/C [30]: 4.73%
viability, T/C [31]: 75.6%
viability, T/C [32]: 92.2%
viability, T/C [33]: 56.6%
viability, T/C [34]: 27.7%
viability, T/C [35]: 8.08%
viability, T/C [36]: 5.23%
